Among the data in patent publication US11953501B2, “Compositions and methods to detect gastrointestinal disease” (The Board of Supervisors of Louisiana State University and …, priority 2016, dated 2024) are inhibition values, retold here.

Each structure is given as a SMILES string. Where two headings read alike, the source gives them in different places.

This assay concerns the target T1, intestinal alkaline phosphatase (iAP) (Homo sapiens, UniProt P09923).
T1 construct: The supernatant contained proteins secreted in the gut lumen, on which our analysis is focused; from tissue; host or cells: stool supernatant (200 mg/mL slurry in water, centrifuged) from human preterm infants
T1 sequence (P09923 20-503 limits assumed): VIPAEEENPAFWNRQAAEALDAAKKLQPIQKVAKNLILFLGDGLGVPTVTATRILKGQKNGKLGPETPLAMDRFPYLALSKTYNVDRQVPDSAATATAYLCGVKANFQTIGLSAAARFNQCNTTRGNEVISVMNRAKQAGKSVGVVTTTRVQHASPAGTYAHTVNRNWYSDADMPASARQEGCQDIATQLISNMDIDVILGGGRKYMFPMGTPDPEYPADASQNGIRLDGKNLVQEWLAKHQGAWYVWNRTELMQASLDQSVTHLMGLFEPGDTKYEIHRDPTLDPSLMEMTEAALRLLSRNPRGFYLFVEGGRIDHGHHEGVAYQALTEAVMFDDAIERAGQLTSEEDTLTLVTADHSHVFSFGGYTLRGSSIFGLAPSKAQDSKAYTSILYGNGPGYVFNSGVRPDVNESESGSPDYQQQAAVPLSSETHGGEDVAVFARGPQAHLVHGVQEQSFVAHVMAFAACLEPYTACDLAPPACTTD
The assay can be described thus: Fecal iAP catalytic activity, 4-methylumbelliferyl phosphate (MUP) fluorometric assay with and without L-phenylalanine. The format is biochemical. To be noted: 10 mM L-Phe, spread is SD, read-out: inhibition of AP activity by L-Phe. As for the experimental part:
Fecal iAP catalytic activity: Alkaline phosphatase activity was measured with use of 4-methylumbelliferyl phosphate (MUP) as a fluorescent substrate (Abcam, ab83371) in the presence and absence of L-phenylalanine, an inhibitor of iAP. Relative fluorescence units (RFUs) at 360/440 nm were measured using a Spectra Max M2e spectrophotometer (Molecular Devices, Sunnyvale, CA). Ninety-six-well black optical bottom plates were used. Standards and negative controls were prepared for each plate run. Total AP activity was determined as: AP activity (mU/mL)=(B×dilution factor)/(T×V), in which B is nmol of product; V is volume of sample added to the well; T is reaction time; and U is the amount of enzyme causing hydrolysis of 1 μmol of MUP per minute at pH 10.0 and 25° C. […]
Fecal iAP Activity—Alkaline phosphatase activity was ascertained with the use of 4-methylumbelliferyl phosphate as a fluorescent substrate ab83371 (Abeam). […] Relative fluorescence units (RFUs) at 360/440 nm wavelengths were measured using a Spectra Max M2e spectrophotometer (Molecular Devices, Sunnyvale, CA). […] Reaction wells for samples, standards and negative background controls were prepared each time the assay was performed and total alkaline phosphatase activity was determined using: ALP activity (mU/ml)=(B/T)/V x dilution factor […]

The term inhibition denotes the drop in the measured response relative to a control, in per cent. On to `N[C@@H](Cc1ccccc1)C(=O)O` [L-Phe, L-phenylalanine], for which the inhibition at 10000 µM is, setting by setting: (stool samples from NEC patients) 90%; (stool samples from control patients) 91%.
